From ChEMBL document CHEMBL1201862, “PubChem BioAssay data set” (2004)
Active and inactive are the calls of the source.

Columns and labels:
[1] = target: Serine/threonine-protein kinase PLK3 (Homo sapiens, UniProt Q9H4B4); assay type: functional
[2] = target: Serine/threonine-protein kinase D2 (Homo sapiens, UniProt Q9BZL6); assay type: functional;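 further: measured against PRKD2 as one member of a kinome-wide kinase profiling panel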
[3] = target: Tyrosine-protein kinase Lck (Homo sapiens, UniProt P06239); assay type: functional;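 further: lck was assayed as one member of a kinase panel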
[4] = target: Rho-associated protein kinase 2 (Homo sapiens, UniProt O75116); assay type: functional
[5] = target: Cell division cycle 7-related protein kinase (Homo sapiens, UniProt O00311); assay type: functional;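 further: value obtained from a kinome-wide kinase panel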
[6] = target: Tyrosine-protein kinase BTK (Homo sapiens, UniProt Q06187); assay type: functional
[7] = target: Serine/threonine-protein kinase PAK 4 (Homo sapiens, UniProt O96013); assay type: functional;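 further: value obtained within a kinome profiling panel in which PAK4 was one of the panel members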
[8] = target: Casein kinase I isoform alpha (Homo sapiens, UniProt P48729); assay type: functional
[9] = target: MAP/microtubule affinity-regulating kinase 3 (Homo sapiens, UniProt P27448); assay type: functional;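 further: MARK3 affinity measured as one member of a kinome panel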
[10] = target: Receptor tyrosine-protein kinase erbB-2 (Homo sapiens, UniProt P04626); experiment: Navigating the Kinome. Panel member name: ERBB2; assay type: functional
[11] = target: Dual specificity tyrosine-phosphorylation-regulated kinase 1B (Homo sapiens, UniProt Q9Y463); experiment: Navigating the Kinome. Panel member name: DYRK1B; assay type: functional
[12] = target: Leucine-rich repeat serine/threonine-protein kinase 2 (Homo sapiens, UniProt Q5S007); assay type: functional;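 further: value from a broad kinome-wide panel profiling study in which LRRK2 was one of the kinases tested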
Aurora kinase B = Aurora kinase B (Homo sapiens, UniProt Q96GD4); assay type: functional
[13] = target: Cyclin-dependent kinase 1 (Homo sapiens, UniProt P06493); assay type: functional;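 further: Kinome-wide panel profiling, with the target listed as panel member CDC2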
[14] = target: Serine/threonine-protein kinase pim-2 (Homo sapiens, UniProt Q9P1W9); assay type: functional;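 further: value comes from a broad kinase panel profiling study in which PIM2 was one of the panel members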
[15] = target: Vascular endothelial growth factor receptor 1 (Homo sapiens, UniProt P17948); assay type: functional;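 further: measured within a kinome-wide profiling panel, FLT1 as the panel member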
[16] = target: Glycogen synthase kinase-3 beta (Homo sapiens, UniProt P49841); assay type: functional;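 further: value comes from a broad kinome profiling panel, with GSK3B as the panel member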
[17] = target: Receptor tyrosine-protein kinase erbB-4 (Homo sapiens, UniProt Q15303); assay type: functional;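 further: ERBB4 member of a kinome-wide kinase profiling panel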
[18] = target: Dual specificity protein kinase CLK4 (Homo sapiens, UniProt Q9HAZ1); assay type: functional
[19] = target: Macrophage colony-stimulating factor 1 receptor (Homo sapiens, UniProt P07333); assay type: functional;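 further: value comes from the Navigating the Kinome screening panel, CSF1R member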
[20] = target: Serine/threonine-protein kinase BRSK1 (Homo sapiens, UniProt Q8TDC3); assay type: functional;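 further: measured within a kinome-wide kinase panel, with the target listed as KIAA1811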
[21] = target: Dual specificity tyrosine-phosphorylation-regulated kinase 1A (Homo sapiens, UniProt Q13627); assay type: functional;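 further: measured against DYRK1A as one member of a broad kinome profiling panel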
[22] = target: Mitogen-activated protein kinase kinase kinase 10 (Homo sapiens, UniProt Q02779); experiment: Navigating the Kinome. Panel member name: MAP3K10; assay type: functional
[23] = target: Serine/threonine-protein kinase 3 (Homo sapiens, UniProt Q13188); assay type: functional;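 further: measured as one member of a kinome-wide kinase panel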
cells = assay type: functional, cell-based
[24] = target: T1, Calpain-2 catalytic subunit (Sus scrofa, UniProt P43367); experiment: pig calpain II inhibitor potency, dose response, biochemical, fluorogenic peptide substrate (AID 1420); assay type: functional
T1 sequence (P43367 whole entry): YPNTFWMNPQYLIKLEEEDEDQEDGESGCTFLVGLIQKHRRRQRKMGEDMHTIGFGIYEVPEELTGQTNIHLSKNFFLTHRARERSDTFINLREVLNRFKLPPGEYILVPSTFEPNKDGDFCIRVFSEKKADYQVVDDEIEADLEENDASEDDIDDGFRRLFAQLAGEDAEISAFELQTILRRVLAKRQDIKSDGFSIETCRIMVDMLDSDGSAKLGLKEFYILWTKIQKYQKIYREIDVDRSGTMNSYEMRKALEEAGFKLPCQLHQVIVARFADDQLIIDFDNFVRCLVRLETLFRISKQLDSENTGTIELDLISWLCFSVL

[25] = target: Induced myeloid leukemia cell differentiation protein Mcl-1 (Homo sapiens, UniProt Q07820); assay type: functional
Nonstructural protein 1 = Nonstructural protein 1 (Influenza A virus, UniProt Q194T2); assay type: functional, Influenza A virus (A/California/07/2009(H1N1))
[26] = target: Mitochondrial peptide methionine sulfoxide reductase (Bos taurus, UniProt P54149); experiment: Absorbance-based biochemical high throughput dose response assay for activators of Methionine sulfoxide reductase A (MsrA).; assay type: functional
[27] = ARNT/TACC3 interaction disruptors, potency, confirmation, biochemical, AlphaScreen, cherry-picked samples (AID 651703); assay type: functional, Homo sapiens;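 further: His-tagged ARNT PAS-B domain paired with GST-TACC3 E629A dimer coactivator fragment; potency of inhibitors that break up the complex and lower AlphaScreen signal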
Caspase-6 = target: T2, Caspase-6 (Homo sapiens, UniProt P55212); experiment: human caspase-6 inhibitors, dose response, biochemical, VEID-R110 fluorescence, cherry-pick (AID 720632)
T2 sequence (P55212 whole entry): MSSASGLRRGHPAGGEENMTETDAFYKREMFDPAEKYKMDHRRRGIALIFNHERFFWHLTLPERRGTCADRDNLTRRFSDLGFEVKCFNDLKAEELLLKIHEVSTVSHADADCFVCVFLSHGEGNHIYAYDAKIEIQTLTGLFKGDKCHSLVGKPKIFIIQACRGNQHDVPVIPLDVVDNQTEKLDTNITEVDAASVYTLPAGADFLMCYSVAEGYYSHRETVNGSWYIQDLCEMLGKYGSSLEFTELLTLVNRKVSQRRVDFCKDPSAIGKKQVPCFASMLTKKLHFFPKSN

Chain of Serine/threonine-protein kinase BRSK1 (Q8TDC3 whole entry): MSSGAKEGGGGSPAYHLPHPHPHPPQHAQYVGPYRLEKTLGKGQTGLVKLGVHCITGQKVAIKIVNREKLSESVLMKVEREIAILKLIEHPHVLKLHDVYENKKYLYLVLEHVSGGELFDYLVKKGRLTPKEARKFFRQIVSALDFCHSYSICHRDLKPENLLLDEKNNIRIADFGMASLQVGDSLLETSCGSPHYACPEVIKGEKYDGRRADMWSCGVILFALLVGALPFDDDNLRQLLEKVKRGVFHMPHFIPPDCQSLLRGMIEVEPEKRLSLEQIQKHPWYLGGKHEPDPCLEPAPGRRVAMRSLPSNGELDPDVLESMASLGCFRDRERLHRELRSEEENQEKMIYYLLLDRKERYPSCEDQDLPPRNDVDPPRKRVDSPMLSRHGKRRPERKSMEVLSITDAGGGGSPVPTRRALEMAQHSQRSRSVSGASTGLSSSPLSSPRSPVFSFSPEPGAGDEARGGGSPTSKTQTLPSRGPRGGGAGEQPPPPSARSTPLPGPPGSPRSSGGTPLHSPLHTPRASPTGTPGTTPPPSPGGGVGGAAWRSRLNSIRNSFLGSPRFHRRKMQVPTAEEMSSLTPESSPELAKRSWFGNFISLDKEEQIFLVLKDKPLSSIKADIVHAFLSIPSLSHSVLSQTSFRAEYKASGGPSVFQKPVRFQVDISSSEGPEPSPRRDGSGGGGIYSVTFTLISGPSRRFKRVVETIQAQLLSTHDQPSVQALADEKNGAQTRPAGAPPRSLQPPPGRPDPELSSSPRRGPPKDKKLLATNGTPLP
Chain of Serine/threonine-protein kinase D2 (Q9BZL6 whole entry): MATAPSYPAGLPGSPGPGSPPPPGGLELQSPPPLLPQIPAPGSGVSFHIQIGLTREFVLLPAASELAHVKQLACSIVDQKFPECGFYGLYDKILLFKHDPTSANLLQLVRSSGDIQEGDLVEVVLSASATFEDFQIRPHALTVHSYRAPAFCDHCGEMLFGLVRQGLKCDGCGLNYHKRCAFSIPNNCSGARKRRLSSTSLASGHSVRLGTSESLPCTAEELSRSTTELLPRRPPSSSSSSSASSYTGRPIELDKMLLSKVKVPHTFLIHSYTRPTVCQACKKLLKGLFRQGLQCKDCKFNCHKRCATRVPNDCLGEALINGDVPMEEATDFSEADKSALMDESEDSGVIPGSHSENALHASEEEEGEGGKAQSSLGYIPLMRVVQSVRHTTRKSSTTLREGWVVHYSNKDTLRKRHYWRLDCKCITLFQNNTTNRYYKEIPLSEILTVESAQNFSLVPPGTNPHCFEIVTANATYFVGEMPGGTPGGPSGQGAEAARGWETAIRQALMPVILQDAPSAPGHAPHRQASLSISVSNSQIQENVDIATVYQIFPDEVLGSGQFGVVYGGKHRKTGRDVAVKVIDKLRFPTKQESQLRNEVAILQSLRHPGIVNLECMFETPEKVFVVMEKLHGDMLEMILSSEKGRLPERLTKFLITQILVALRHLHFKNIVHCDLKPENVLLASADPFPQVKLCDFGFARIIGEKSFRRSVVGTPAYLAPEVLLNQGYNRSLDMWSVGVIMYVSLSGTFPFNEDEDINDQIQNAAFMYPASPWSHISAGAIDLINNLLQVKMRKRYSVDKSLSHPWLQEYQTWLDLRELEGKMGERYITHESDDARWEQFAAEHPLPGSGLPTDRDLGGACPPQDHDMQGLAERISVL
Chain of Nonstructural protein 1 (Q194T2 whole entry): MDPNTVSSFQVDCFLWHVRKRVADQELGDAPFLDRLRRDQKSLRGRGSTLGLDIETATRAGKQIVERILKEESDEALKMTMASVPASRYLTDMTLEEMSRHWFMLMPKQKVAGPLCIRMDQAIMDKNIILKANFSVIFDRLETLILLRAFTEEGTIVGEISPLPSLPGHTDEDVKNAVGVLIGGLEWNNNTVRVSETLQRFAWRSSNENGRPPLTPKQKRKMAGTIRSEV
Chain of Serine/threonine-protein kinase PLK3 (Q9H4B4 whole entry): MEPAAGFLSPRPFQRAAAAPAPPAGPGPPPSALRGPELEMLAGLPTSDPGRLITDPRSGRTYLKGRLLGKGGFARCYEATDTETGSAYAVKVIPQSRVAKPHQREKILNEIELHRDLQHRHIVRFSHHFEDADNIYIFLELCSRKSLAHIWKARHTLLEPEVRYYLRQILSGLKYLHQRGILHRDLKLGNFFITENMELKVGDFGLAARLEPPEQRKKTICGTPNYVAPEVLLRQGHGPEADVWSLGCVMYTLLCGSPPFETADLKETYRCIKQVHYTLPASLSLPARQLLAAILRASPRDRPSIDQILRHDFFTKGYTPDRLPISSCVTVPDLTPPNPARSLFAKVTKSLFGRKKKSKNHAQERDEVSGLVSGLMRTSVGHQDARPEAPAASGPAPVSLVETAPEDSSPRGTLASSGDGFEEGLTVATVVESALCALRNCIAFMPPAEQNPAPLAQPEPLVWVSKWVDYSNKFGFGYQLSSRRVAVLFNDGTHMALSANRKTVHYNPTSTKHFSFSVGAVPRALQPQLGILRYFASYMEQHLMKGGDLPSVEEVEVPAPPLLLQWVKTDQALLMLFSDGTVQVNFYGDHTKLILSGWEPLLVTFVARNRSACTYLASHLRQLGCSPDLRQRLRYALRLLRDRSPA
Chain of Rho-associated protein kinase 2 (O75116 whole entry): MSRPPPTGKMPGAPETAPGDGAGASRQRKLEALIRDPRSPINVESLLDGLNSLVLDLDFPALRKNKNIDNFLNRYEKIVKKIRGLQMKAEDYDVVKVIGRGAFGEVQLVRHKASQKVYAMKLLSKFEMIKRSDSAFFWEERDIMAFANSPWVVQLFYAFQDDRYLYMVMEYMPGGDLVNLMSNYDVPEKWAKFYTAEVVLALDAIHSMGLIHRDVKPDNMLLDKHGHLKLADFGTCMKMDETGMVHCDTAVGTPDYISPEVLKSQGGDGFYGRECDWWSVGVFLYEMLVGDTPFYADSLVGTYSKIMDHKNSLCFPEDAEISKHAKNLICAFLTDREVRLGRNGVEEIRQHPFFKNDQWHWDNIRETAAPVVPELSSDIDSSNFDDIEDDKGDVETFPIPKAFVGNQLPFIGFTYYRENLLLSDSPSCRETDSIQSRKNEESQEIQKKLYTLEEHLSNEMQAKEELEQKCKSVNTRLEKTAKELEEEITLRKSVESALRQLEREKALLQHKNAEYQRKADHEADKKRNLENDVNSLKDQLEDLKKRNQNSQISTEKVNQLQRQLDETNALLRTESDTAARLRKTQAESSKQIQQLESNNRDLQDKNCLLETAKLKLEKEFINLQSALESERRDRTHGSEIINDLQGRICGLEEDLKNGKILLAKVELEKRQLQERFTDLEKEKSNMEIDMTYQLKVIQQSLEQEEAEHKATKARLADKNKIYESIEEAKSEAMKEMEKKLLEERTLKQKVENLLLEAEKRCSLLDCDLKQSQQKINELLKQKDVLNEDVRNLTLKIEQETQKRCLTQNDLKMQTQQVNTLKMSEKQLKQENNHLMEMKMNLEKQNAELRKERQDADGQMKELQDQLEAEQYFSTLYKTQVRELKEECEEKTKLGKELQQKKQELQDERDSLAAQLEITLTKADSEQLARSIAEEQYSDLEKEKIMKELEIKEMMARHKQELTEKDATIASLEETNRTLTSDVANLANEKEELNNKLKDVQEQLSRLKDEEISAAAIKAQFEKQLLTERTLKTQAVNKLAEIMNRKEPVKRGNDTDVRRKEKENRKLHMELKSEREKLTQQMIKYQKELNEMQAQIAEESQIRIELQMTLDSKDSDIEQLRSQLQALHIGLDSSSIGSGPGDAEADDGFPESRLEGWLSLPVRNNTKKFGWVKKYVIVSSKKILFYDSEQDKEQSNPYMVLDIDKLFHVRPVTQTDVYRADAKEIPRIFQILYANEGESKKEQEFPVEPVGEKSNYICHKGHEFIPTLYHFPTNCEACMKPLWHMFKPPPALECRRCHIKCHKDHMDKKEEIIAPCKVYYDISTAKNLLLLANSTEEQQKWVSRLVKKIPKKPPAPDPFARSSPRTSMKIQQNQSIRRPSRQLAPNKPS
Chain of Tyrosine-protein kinase Lck (P06239 whole entry): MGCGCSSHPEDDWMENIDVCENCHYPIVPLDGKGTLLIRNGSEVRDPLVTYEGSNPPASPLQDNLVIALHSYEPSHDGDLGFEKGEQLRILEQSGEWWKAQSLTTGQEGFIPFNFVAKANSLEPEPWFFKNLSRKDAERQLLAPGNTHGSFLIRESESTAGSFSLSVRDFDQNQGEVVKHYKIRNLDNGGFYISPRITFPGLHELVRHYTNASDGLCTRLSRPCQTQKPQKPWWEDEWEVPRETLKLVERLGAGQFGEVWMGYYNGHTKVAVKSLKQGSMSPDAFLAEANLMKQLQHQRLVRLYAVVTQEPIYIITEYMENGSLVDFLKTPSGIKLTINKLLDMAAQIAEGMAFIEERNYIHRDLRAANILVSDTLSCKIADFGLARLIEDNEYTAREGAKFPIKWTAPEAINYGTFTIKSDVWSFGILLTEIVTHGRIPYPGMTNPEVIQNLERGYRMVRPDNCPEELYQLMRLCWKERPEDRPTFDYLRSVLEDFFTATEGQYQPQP
Chain of Aurora kinase B (Q96GD4 whole entry): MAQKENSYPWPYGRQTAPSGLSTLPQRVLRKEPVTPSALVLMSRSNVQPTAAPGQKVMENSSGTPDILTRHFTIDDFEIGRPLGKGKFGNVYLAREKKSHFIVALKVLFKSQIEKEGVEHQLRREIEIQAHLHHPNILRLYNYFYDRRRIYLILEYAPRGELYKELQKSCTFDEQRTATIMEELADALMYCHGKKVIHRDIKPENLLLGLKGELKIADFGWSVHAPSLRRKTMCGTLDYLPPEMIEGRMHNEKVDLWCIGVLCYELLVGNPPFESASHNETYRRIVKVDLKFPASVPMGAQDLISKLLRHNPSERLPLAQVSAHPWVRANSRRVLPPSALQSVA
Chain of Mitochondrial peptide methionine sulfoxide reductase (P54149 whole entry, the tested form may be a part): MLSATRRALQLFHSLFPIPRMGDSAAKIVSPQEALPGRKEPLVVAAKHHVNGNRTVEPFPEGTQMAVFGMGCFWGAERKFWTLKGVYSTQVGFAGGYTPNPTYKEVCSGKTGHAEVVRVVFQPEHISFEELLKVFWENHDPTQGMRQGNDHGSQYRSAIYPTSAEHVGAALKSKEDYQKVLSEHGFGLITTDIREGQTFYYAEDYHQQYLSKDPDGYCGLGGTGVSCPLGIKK

OC1CCC(Nc2cc(Cl)nc(-c3c[nH]c4ncccc34)n2)CC1 (stereo unspecified)
inactive: Ki [3] > 3160 nM | Ki [6] > 2510 nM | Ki [8] > 2510 nM | Ki [15] > 1580 nM | Ki [17] > 3980 nM
active: Ki [1] 3980 nM | Ki [2] 316 nM | Ki [4] 12.6 nM | Ki [5] 1 nM | Ki [7] 100 nM | Ki [9] 398 nM | Ki [10] 1000 nM | Ki [11] 316 nM | Ki [12] 31.6 nM | Ki (Aurora kinase B) 316 nM | Ki [13] 1000 nM | Ki [14] 251 nM | Ki [16] 63.1 nM | Ki [18] 20 nM | Ki [19] 200 nM | Ki [20] 1260 nM | Ki [21] 50.1 nM | Ki [22] 79.4 nM | Ki [23] 50.1 nM

CCOC(=O)c1c(NS(=O)(=O)c2ccccc2)n(CCCOC)c2nc3ccccc3nc12
> 350000 nM (not active): EC50 (cells)

COCC/N=c1\scc(-c2cccs2)n1/N=C/c1ccc(O)c(O)c1O
active: IC50 [25] 5170 nM | IC50 (Nonstructural protein 1) 42900 nM
38900 nM (not active): IC50 [24]

O=C(COC(=O)c1ccc([N+](=O)[O-])s1)NCCc1ccccc1
active: AC50 [27] 83700 nM | AC50 (Caspase-6) 11000 nM
inactive: EC50 [26] 22100 nM
